ChEMBL document CHEMBL6182910, “Design, Synthesis, and Biological Evaluation of 4-(Difluoromethyl)-1H-imidazole-5-carboxylic Acids/4-(3-Cyanophenoxy)pyrimidine-5-carboxylic Acids as P2Y1 Receptor Antagonists for Ischemic Stroke Treatment” (J Med Chem, 2025)

Experiments:
[1] = Antioxidant activity assessed as DPPH radical scavenging activity at 60 uM incubated for 30 mins under dark condition by absorbance based method; format: functional
[2] = Protein binding in rat brain homogenate at 10 uM incubated for 12 hrs by equilibrium dialysis method; format: ADME, tissue-based; details: read-out: PB (converted)
[3] = Half life male Sprague-Dawley rat at 10 mg/kg, po measured up to 24 hrs by LC-MS/MS analysis; format: ADME, organism-based; details: in vivo
[4] = MRT (0 to infinity) male Sprague-Dawley rat at 10 mg/kg, po measured up to 24 hrs by LC-MS/MS analysis; format: ADME, organism-based; details: in vivo
[5] = Apparent volume of distribution male Sprague-Dawley rat at 10 mg/kg, po measured up to 24 hrs by LC-MS/MS analysis; format: ADME, organism-based; details: in vivo
[6] = Oral bioavailability male Sprague-Dawley rat at 10 mg/kg measured up to 24 hrs by LC-MS/MS analysis; format: ADME, organism-based; details: in vivo
[7] = Clearance male Sprague-Dawley rat at 10 mg/kg, iv measured up to 24 hrs by LC-MS/MS analysis; format: ADME, organism-based; details: in vivo
[8] = AUC in plasma of male Sprague-Dawley rat at 10 mg/kg, iv measured for 0.083 to 24 hrs by LC-MS/MS analysis; format: ADME, organism-based; details: time 0.083-24 hrs
[9] = Ratio of AUC in brain to plasma of male Sprague-Dawley rat at 10 mg/kg, iv measured for 0.083 to 24 hrs by LC-MS/MS analysis; format: ADME, organism-based; details: brain and plasma, time 0.083-24 hrs, read-out: Ratio AUC
Rattus norvegicus [10] = assay: Anti-platelet aggregation in Sprague-Dawley rat assessed as inhibition of ADP-induced platelet aggregation at 10 mg/kg, po measured for 15 mins in presence of 2.5 uM ADP by cell counter analysis relative to control; format: functional; details: 0.25 h
Rattus norvegicus [11] = assay: Anti-platelet aggregation in Sprague-Dawley rat assessed as inhibition of ADP-induced platelet aggregation at 10 mg/kg, po measured for 15 mins in presence of 5 uM ADP by cell counter analysis relative to control; format: functional; details: 0.25 h
Rattus norvegicus [12] = assay: Neuroprotective activity in MCAO-induced brain damage Sprague-Dawley rat model assessed as improvement in motor co-ordination administered intravenously immediately after arterial occlusion measured after 24 hrs by Longa's method; format: functional, organism-based; details: dose 2.5-10 mg/kg, route iv
Rattus norvegicus [13] = assay: Neuroprotective activity in MCAO-induced brain damage Sprague-Dawley rat model assessed as reduction in brain infarction size at 10 mg/kg, iv administered immediately after arterial occlusion measured after 24 hrs by TTC staining based analysis relative to control; format: functional; set-up: scale not given: the % may be the effect or the level left
Rattus norvegicus [14] = assay: Neuroprotective activity in MCAO-induced brain damage Sprague-Dawley rat model assessed as brain infarction size at 10 mg/kg, iv administered immediately after arterial occlusion measured after 24 hrs by TTC staining based analysis (reference value: 43.1 %); format: functional

SMILES | Activity [1] | fraction unbound at 12 h, 10 µM [2] | t1/2 [3] | MRT inf [4] | Vz [5] | bioavailability [6] | clearance [7] | AUC [8] | Kp [9] | inhibition in vivo at 10 mg/kg (Rattus norvegicus [10]) | inhibition in vivo at 10 mg/kg (Rattus norvegicus [11]) | Activity (Rattus norvegicus [12]) | Activity (Rattus norvegicus [13]) | Activity (Rattus norvegicus [14])
N#Cc1cccc(Oc2nc(-c3cccc(C#N)c3)ncc2C(=O)O)c1 | 6.15% | 0.046 | 15.7 min | 18.4 min | 7.668 L/kg | 4.1% | 7 mL/min/kg | 75200 ng·h/mL | 0.25 | 66% | 47.6% | Dose-dependent-effect; Outperformed Edaravone And Hnw001 At 10 Mg/Kg | 74.2% | 11.1%
N#Cc1cccc(-c2nc(C(F)F)c(C(=O)O)n2OCc2csc(N)n2)c1 | 4.29% | 0.092 |  |  |  | 0.31% | 14.6 mL/min/kg | 14000 ng·h/mL | 0.073 | 54.5% | 43.2% | Dose-dependent-effect; Outperformed Edaravone And Hnw001 At 10 Mg/Kg | 51.5% | 20.9%
